Assays:
Assay type in all cases: in vivo
corn (Zea mays) [1] = assay: Test A pre-/postemergence: corn
Summary of the method: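 Plants in loam–sand blend were treated with test chemicals in non-phytotoxic solvent with surfactant, either as preemergence directed soil spray or postemergence at 2–10 cm, one- to two-leaf stage. After about ten days in greenhouse, injury was rated visually against untreated controls on a 0–100 scale (100 = complete control).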

[2] = tested on: ducksalad (Heteranthera limosa); assay: Test B flooded paddy: ducksalad; details: Flood; 250 g ai/ha; applied to paddy water at 2-leaf stage; visually evaluated after 13 to 15 days
Summary of the method: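 Each compound is applied to the floodwater of pots holding 2-leaf seedlings, water standing 3 cm over the soil throughout. Plants stay in a greenhouse 13 to 15 days before visual scoring against controls from 0 (no effect) to 100 (complete control).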

wild oat (Avena fatua) = assay: Test C pre-/postemergence: wild oat
Summary of the method: (§1)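 Visual injury scored 0–100 (100 = complete control) against untreated controls after 13–15 greenhouse days. Surfactant-containing solvent formulations applied either to soil after sowing (loam/sand) or over 1- to 4-leaf plants, 2–18 cm tall.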

corn (Zea mays) [3] = assay: Test C pre-/postemergence: corn
Summary of the method: as §1

[4] = tested on: large crabgrass (Digitaria sanguinalis); assay: Test C pre-/postemergence: large crabgrass
Summary of the method: as §1

[5] = tested on: foxtail, giant (giant foxtail, Setaria faberii); assay: Test C pre-/postemergence: foxtail, giant
Summary of the method: as §1

kochia (Kochia scoparia) = assay: Test C pre-/postemergence: kochia
Summary of the method: as §1

[6] = tested on: nutsedge, yellow (yellow nutsedge, Cyperus esculentus); assay: Test C pre-/postemergence: nutsedge, yellow
Summary of the method: as §1

[7] = tested on: ragweed (common ragweed, Ambrosia elation); assay: Test C pre-/postemergence: ragweed
Summary of the method: as §1

[8] = tested on: velvetleaf (Abutilon theophrasti); assay: Test C pre-/postemergence: velvetleaf
Summary of the method: as §1

[9] = tested on: chickweed (common chickweed, Stellaria media); assay: Test C postemergence: chickweed
Summary of the method: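 Seedlings are raised in pots of peat-based medium to 2–18 cm (1- to 4-leaf stage). The formulated compound is then applied postemergence. Plants stay in the greenhouse for 13 to 15 days and are rated visually against controls, where 0 means no effect and 100 complete control.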

[10] = Postemergence, 125 g ai/ha, 0 to 100 scale, 0 is no effect, 100 is complete control
[11] = Postemergence, 500 g ai/ha, visual rating on 0 to 100 scale (0 no effect, 100 complete control), approximately ten days
[12] = Postemergence, 16 g ai/ha, scale 0 to 100, 0 no effect, 100 complete control
[13] = Postemergence, 31 g ai/ha, scale 0 to 100 (0 no effect, 100 complete control)
[14] = Postemergence, 62 g ai/ha, scale 0 to 100 (0 no effect, 100 complete control)
[15] = Postemergence, 125 g ai/ha, scale 0 to 100, 0 no effect, 100 complete control
[16] = Preemergence, 16 g ai/ha, scale 0 (no effect) to 100 (complete control)
[17] = Preemergence, 31 g ai/ha, scale of 0 to 100, 0 is no effect, 100 is complete control
[18] = Preemergence, 62 g ai/ha, scale of 0 to 100, 0 is no effect, 100 is complete control
[19] = Preemergence, 125 g ai/ha, scale 0 to 100, 0 no effect, 100 complete control
[20] = 31 g ai/ha, scale 0 to 100 (0 no effect, 100 complete control)
[21] = 62 g ai/ha, scale 0 to 100 (0 no effect, 100 complete control)
[22] = 125 g ai/ha, scale 0 to 100, 0 no effect, 100 complete control
[23] = Postemergence, 250 g ai/ha, scale 0 to 100
[24] = Preemergence, 250 g ai/ha, scale 0 to 100, 0 no effect, 100 complete control

SMILES: FCc1nn(-c2ccc(F)cc2)nc1Oc1ccnc(C(F)(F)F)c1 [Compound 160]
- Plant response rating, Corn (corn (Zea mays) [1]; [10]): 30
- Corn plant response rating (corn (Zea mays) [1]; [11]): 60
- Plant response rating, Corn (corn (Zea mays) [1]; Preemergence, 125 g ai/ha, 0 to 100 scale where 0 is no effect and 100 is complete control): 20
- Plant response rating, Corn (corn (Zea mays) [1]; Preemergence, 500 g ai/ha, 0 to 100 scale (0 no effect, 100 complete control)): 40
- Plant response rating, Ducksalad (0 to 100 scale, 0 is no effect, 100 is complete control) [2]: 90
- Plant response rating, Oat, Wild (wild oat (Avena fatua); [12]): 15
- Plant response rating, Oat, Wild (wild oat (Avena fatua); [13]): 30
- Plant response rating, Oat, Wild (wild oat (Avena fatua); [14]): 45
- Plant response rating, Oat, Wild (wild oat (Avena fatua); [15]): 60
- Plant response rating, Corn (corn (Zea mays) [3]; [12]): 15
- Plant response rating, Corn (corn (Zea mays) [3]; [13]): 15
- Plant response rating, Corn (corn (Zea mays) [3]; [14]): 20
- Plant response rating, Corn (corn (Zea mays) [3]; [15]): 25
- Plant response rating, Corn (corn (Zea mays) [3]; [16]): 5
- Plant response rating, Corn (corn (Zea mays) [3]; [17]): 5
- Plant response rating, Corn (corn (Zea mays) [3]; [18]): 5
- Plant response rating, Corn (corn (Zea mays) [3]; [19]): 5
- Plant response rating, Crabgrass, Large [4, 12]: 20
- Plant response rating, Crabgrass, Large [4, 13]: 25
- Plant response rating, Crabgrass, Large [4, 14]: 35
- Plant response rating, Crabgrass, Large [4, 15]: 40
- Plant response rating, Crabgrass, Large [4, 16]: 90
- Plant response rating, Crabgrass, Large [4, 17]: 100
- Plant response rating, Crabgrass, Large [4, 18]: 100
- Plant response rating, Crabgrass, Large [4, 19]: 100
- Plant response rating, Foxtail, Giant [5, 12]: 15
- Plant response rating, Foxtail, Giant [5, 13]: 20
- Plant response rating, Foxtail, Giant [5, 15]: 75
- Plant response rating, Foxtail, Giant [5, 16]: 80
- Plant response rating, Foxtail, Giant [5, 17]: 100
- Plant response rating, Foxtail, Giant [5, 18]: 100
- Plant response rating, Foxtail, Giant [5, 19]: 100
- Plant response rating, Kochia (kochia (Kochia scoparia); [12]): 90
- Plant response rating, Kochia (kochia (Kochia scoparia); [13]): 90
- Plant response rating, Kochia (kochia (Kochia scoparia); [14]): 95
- Plant response rating, Kochia (kochia (Kochia scoparia); [15]): 95
- Plant response rating, Nutsedge, Yellow [6, 12]: 5
- Plant response rating, Nutsedge, Yellow [6, 13]: 10
- Plant response rating, Nutsedge, Yellow [6, 14]: 10
- Plant response rating, Nutsedge, Yellow [6, 15]: 15
- Plant response rating, Nutsedge, Yellow [6, 16]: 0
- Plant response rating, Nutsedge, Yellow [6, 17]: 0
- Plant response rating, Nutsedge, Yellow [6, 18]: 0
- Plant response rating, Nutsedge, Yellow [6, 19]: 0
- Plant response rating, Ragweed [7, 12]: 10
- Plant response rating, Ragweed [7, 13]: 10
- Plant response rating, Ragweed [7, 14]: 40
- Plant response rating, Ragweed [7, 15]: 40
- Plant response rating, Ragweed [7, 16]: 0
- Plant response rating, Ragweed [7, 17]: 0
- Plant response rating, Ragweed [7, 18]: 5
- Plant response rating, Ragweed [7, 19]: 5
- Plant response rating, Velvetleaf [8, 12]: 20
- Plant response rating, Velvetleaf [8, 13]: 30
- Plant response rating, Velvetleaf [8, 14]: 50
- Plant response rating, Velvetleaf [8, 15]: 75
- Plant response rating, Velvetleaf [8, 16]: 0
- Plant response rating, Velvetleaf [8, 17]: 5
- Plant response rating, Velvetleaf [8, 18]: 30
- Plant response rating, Velvetleaf [8, 19]: 30
- Plant response rating, Chickweed ([9]; 16 g ai/ha, scale 0 to 100, 0 no effect, 100 complete control): 70
- Plant response rating, Chickweed [9, 20]: 90
- Plant response rating, Chickweed [9, 21]: 95
- Plant response rating, Chickweed [9, 22]: 98

SMILES: FC(F)Oc1nn(-c2ccc(C(F)(F)F)cc2)nc1Cc1ccnc(C(F)(F)F)c1 [Compound 26]
- Corn plant response rating (corn (Zea mays) [1]; [10]): 30
- Corn plant response rating (corn (Zea mays) [1]; [11]): 40
- Plant response rating, Corn (corn (Zea mays) [1]; Preemergence, 125 g ai/ha, 0 to 100 scale (0 no effect, 100 complete control)): 30
- Plant response rating, Corn (corn (Zea mays) [1]; Preemergence, 500 g ai/ha, 0 to 100 scale, 0 is no effect, 100 is complete control): 50
- Plant response rating, Ducksalad (0 to 100 scale, 0 is no effect, 100 is complete control) [2]: 40
- Plant response rating, Oat, Wild (wild oat (Avena fatua); [13]): 10
- Plant response rating, Oat, Wild (wild oat (Avena fatua); [14]): 30
- Plant response rating, Oat, Wild (wild oat (Avena fatua); [15]): 40
- Plant response rating, Oat, Wild (wild oat (Avena fatua); [23]): 85
- Plant response rating, Oat, Wild (wild oat (Avena fatua); [17]): 45
- Plant response rating, Oat, Wild (wild oat (Avena fatua); [18]): 70
- Plant response rating, Oat, Wild (wild oat (Avena fatua); [19]): 70
- Plant response rating, Oat, Wild (wild oat (Avena fatua); [24]): 95
- Plant response rating, Corn (corn (Zea mays) [3]; [13]): 20
- Plant response rating, Corn (corn (Zea mays) [3]; [14]): 20
- Plant response rating, Corn (corn (Zea mays) [3]; [15]): 20
- Plant response rating, Corn (corn (Zea mays) [3]; [23]): 25
- Plant response rating, Corn (corn (Zea mays) [3]; [17]): 0
- Plant response rating, Corn (corn (Zea mays) [3]; Preemergence, 62 g ai/ha, scale 0 to 100, 0 no effect, 100 complete control): 5
- Plant response rating, Corn (corn (Zea mays) [3]; [19]): 5
- Plant response rating, Corn (corn (Zea mays) [3]; [24]): 5
- Plant response rating, Crabgrass, Large [4, 13]: 20
- Plant response rating, Crabgrass, Large [4, 14]: 30
- Plant response rating, Crabgrass, Large [4, 15]: 40
- Plant response rating, Crabgrass, Large [4, 23]: 40
- Plant response rating, Crabgrass, Large [4, 17]: 98
- Plant response rating, Crabgrass, Large [4, 18]: 98
- Plant response rating, Crabgrass, Large [4, 19]: 100
- Plant response rating, Crabgrass, Large [4, 24]: 100
- Plant response rating, Foxtail, Giant [5, 13]: 25
- Plant response rating, Foxtail, Giant [5, 14]: 30
- Plant response rating, Foxtail, Giant [5, 15]: 45
- Plant response rating, Foxtail, Giant [5, 23]: 60
- Plant response rating, Foxtail, Giant [5, 17]: 98
- Plant response rating, Foxtail, Giant [5, 18]: 100
- Plant response rating, Foxtail, Giant [5, 19]: 100
- Plant response rating, Foxtail, Giant [5, 24]: 100
- Plant response rating, Kochia (kochia (Kochia scoparia); [13]): 75
- Plant response rating, Kochia (kochia (Kochia scoparia); [14]): 95
- Plant response rating, Kochia (kochia (Kochia scoparia); [15]): 95
- Plant response rating, Kochia (kochia (Kochia scoparia); [23]): 98
- Plant response rating, Kochia (kochia (Kochia scoparia); [17]): 45
- Plant response rating, Kochia (kochia (Kochia scoparia); [18]): 95
- Plant response rating, Kochia (kochia (Kochia scoparia); [19]): 95
- Plant response rating, Kochia (kochia (Kochia scoparia); [24]): 98
- Plant response rating, Nutsedge, Yellow [6, 13]: 10
- Plant response rating, Nutsedge, Yellow [6, 14]: 10
- Plant response rating, Nutsedge, Yellow [6, 15]: 15
- Plant response rating, Nutsedge, Yellow [6, 23]: 15
- Plant response rating, Nutsedge, Yellow [6, 17]: 0
- Plant response rating, Nutsedge, Yellow [6, 18]: 0
- Plant response rating, Nutsedge, Yellow [6, 19]: 0
- Plant response rating, Nutsedge, Yellow [6, 24]: 0
- Plant response rating, Ragweed [7, 13]: 40
- Plant response rating, Ragweed [7, 14]: 55
- Plant response rating, Ragweed [7, 15]: 90
- Plant response rating, Ragweed [7, 23]: 95
- Plant response rating, Ragweed [7, 17]: 15
- Plant response rating, Ragweed [7, 18]: 35
- Plant response rating, Ragweed [7, 19]: 50
- Plant response rating, Ragweed [7, 24]: 75
- Plant response rating, Velvetleaf [8, 13]: 25
- Plant response rating, Velvetleaf [8, 14]: 50
- Plant response rating, Velvetleaf [8, 15]: 55
- Plant response rating, Velvetleaf [8, 23]: 85
- Plant response rating, Velvetleaf [8, 17]: 25
- Plant response rating, Velvetleaf [8, 18]: 35
- Plant response rating, Velvetleaf [8, 19]: 75
- Plant response rating, Velvetleaf [8, 24]: 100
- Plant response rating, Chickweed [9, 20]: 40
- Plant response rating, Chickweed [9, 21]: 98
- Plant response rating, Chickweed [9, 22]: 100
- Plant response rating, Chickweed ([9]; 250 g ai/ha, scale 0 to 100): 100

— patent US9302999B2, “Substituted triazoles as herbicides” (E. I. DU PONT DE NEMOURS AND COMPANY, priority 2012, dated 2016)
